biological target: BRD4 protein (Homo sapiens, UniProt O60885); experiment: FRET assay, half maximal inhibitory concentration (IC50); format: binding; settings: BRD4 protein 50 nM, Biotin-H4KAc4 peptide 12.5 nM; List of Classification
Description: The compounds were biologically evaluated by determining the half maximal inhibitory concentration (IC50) by FRET assay. The IC50 is a measure of the effectiveness of a substance in inhibiting a specific biological or biochemical function.
For IC50 determinations, dose-response curves were generated, using a top concentration of 50 μM compound in 12.5% DMSO, followed by 10-fold dilutions in 12.5% DMSO. The composition of the reaction buffer was 50 mM HEPES, pH 7.5; 100 mM NaCl, 0.05% CHAPS.
The reaction was run in a final volume of 25 μl. The BRD4 protein (16.5 μl) was added to wells of 384w white Optiplates (Perkin Elmer) (50 nM final concentration) and 1 μl of compound dilution of DMSO control. Incubation time was 30 minutes at room temperature. In the next step, 2.5 μl Biotin-H4KAc4 peptide (Millipore 13-379) was added to the wells (final concentration was 12.5 nM), and the plates were incubated for 30 minutes at room temperature. Detection was performed by addition of 5 μl of a mix of mAb GST-XL665 (Cisbio 61GSTXLB) (10 nM final concentration) and Streptavidin Cryptate (Cisbio 610SAKLB) (2.4 nM final conc.) in reaction buffer with 0.4M KF and 0.05% BSA). The plates were incubated for one hour prior to reading on an Envision reader (Perkin Elmer)
Data was analyzed using GraphPad Prism, and IC50 data was obtained using non-linear regression curve fit using log(inhibitor) vs response (variable slope). All compounds were considered active although classified (according to the half maximal inhibitory concentration (IC50) by FRET assay) as follows: […]

SMILES	IC50 [nM]
Cc1cc(=O)nc2ccc(NC(=O)c3cc(CN4CCOCC4)cnc3N3CCCC3)cn12 [Compound-92, N-(4-methyl-2-oxo-pyrido[1,2-a]pyrimidin-7-yl)-5-(morpholinomethyl)-2-pyrrolidin-1-yl-pyridine-3-carboxamide]	> 10000
Cc1cc(=O)[nH]c2ccc(NC(=O)c3cc(S(=O)(=O)N4CCOCC4)ccc3N3CCCC3)nc12 [Compound-94, N-(8-methyl-6-oxo-5H-1,5-naphthyridin-2-yl)-5-morpholinosulfonyl-2-pyrrolidin-1-yl-benzamide]	> 10000
COc1cc(O)nc2ccc(NC(=O)c3cc(CN4CCN(C)CC4)ccc3N3CCCC3)cc12 [Compound-98, N-(2-hydroxy-4-methoxy-6-quinolyl)-5-[(4-methylpiperazin-1-yl)methyl]-2-pyrrolidin-1-yl-benzamide]	< 200
O=C1CCc2cc(NC(=O)c3cc(S(=O)(=O)N4CCOCC4)ccc3N3CCCC3)ccc2N1 [Compound-100, 5-morpholinosulfonyl-N-(2-oxo-3,4-dihydro-1H-quinolin-6-yl)-2-pyrrolidin-1-yl-benzamide]	500 to 1000
CC1CC(=O)Nc2ccc(NC(=O)c3cc(CN4CCOCC4)ccc3N3CCCC3)cc21 (centres unmarked) [Compound-101, N-(4-methyl-2-oxo-3,4-dihydro-1H-quinolin-6-yl)-5-(morpholinomethyl)-2-pyrrolidin-1-yl-benzamide]	< 200
CC1(C)CC(=O)Nc2ccc(NC(=O)c3cc(CN4CCOCC4)ccc3N3CCCC3)cc21 [Compound-103, N-(4,4-dimethyl-2-oxo-1,3-dihydroquinolin-6-yl)-5-(morpholinomethyl)-2-pyrrolidin-1-yl-benzamide]	200 to 500
CN(C)S(=O)(=O)c1ccc(N2CCCC2)c(C(=O)Nc2ccc3c(c2)C(C)(C)CC(=O)N3)c1 [Compound-104, N-(4,4-dimethyl-2-oxo-1,3-dihydroquinolin-6-yl)-5-(dimethylsulfamoyl)-2-pyrrolidin-1-yl-benzamide]	< 200
Cc1cc(O)nc2ccc(NC(=O)c3cc(N)ccc3-n3cccn3)cc12 [Compound-105, 5-amino-N-(2-hydroxy-4-methyl-6-quinolyl)-2-pyrazol-1-yl-benzamide]	500 to 1000
CN(C)S(=O)(=O)c1ccc(N2CCCC2)c(C(=O)Nc2cc(F)c3c(c2)C(C)(C)CC(=O)N3)c1 [Compound-106, 5-(dimethylsulfamoyl)-N-(8-fluoro-4,4-dimethyl-2-oxo-1,3-dihydroquinolin-6-yl)-2-pyrrolidin-1-yl-benzamide]	< 200
COc1cc(NC(=O)c2cc(S(=O)(=O)N(C)C)ccc2N2CCCC2)cc2c(C)cc(O)nc12 [Compound-108, 5-(dimethylsulfamoyl)-N-(2-hydroxy-8-methoxy-4-methyl-6-quinolyl)-2-pyrrolidin-1-yl-benzamide]	< 200
Cc1cc(O)nc2ccc(NC(=O)c3cc(S(=O)(=O)N4CCOCC4)ccc3N3CCC(O)C3)cc12 (centres unmarked) [Compound-110, N-(2-hydroxy-4-methyl-6-quinolyl)-2-(3-hydroxypyrrolidin-1-yl)-5-morpholino-sulfonyl-benzamide]	< 200
COC1CCN(c2ccc(S(=O)(=O)N3CCOCC3)cc2C(=O)Nc2ccc3nc(O)cc(C)c3c2)C1 (centres unmarked) [Compound-111, N-(2-hydroxy-4-methyl-6-quinolyl)-2-(3-methoxypyrrolidin-1-yl)-5-morpholino-sulfonyl-benzamide]	< 200
Cc1cc(O)nc2ccc(NC(=O)c3cc(C4(N5CCOCC5)CC4)ccc3N3CCCC3CN(C)C)cc12 (centres unmarked) [Compound-114, 2-(2-((dimethylamino)methyl)pyrrolidin-1-yl)-N-(2-hydroxy-4-methylquinolin-6-yl)-5-(1-morpholinocyclopropyl) benzamide]	< 200
Cc1cc(O)nc2ccc(NC(=O)c3cc(C#N)ncc3N3CCOCC3)cc12 [Compound-116, 2-cyano-N-(2-hydroxy-4-methylquinolin-6-yl)-5-morpholinoisonicotinamide]	< 200
Cc1cc(O)nc2ccc(NC(=O)c3cccnc3N3CCOCC3C)cc12 (centres unmarked) [Compound-120, N-(2-hydroxy-4-methyl-6-quinolyl)-2-(3-methylmorpholin-4-yl)pyridine-3-carboxamide]	< 200
Cc1cc2nc(O)cc(C)c2cc1NC(=O)c1cccnc1N1CCC(F)C1 (centres unmarked) [Compound-126, 2-(3-fluoropyrrolidin-1-yl)-N-(2-hydroxy-4,7-dimethyl-6-quinolyl)pyridine-3-carboxamide]	500 to 1000
Cc1cc2nc(O)cc(C)c2cc1NC(=O)c1cccnc1N1CCC(F)(F)C1 [Compound-127, 2-(3,3-difluoropyrrolidin-1-yl)-N-(2-hydroxy-4,7-dimethyl-6-quinolyl)pyridine-3-carboxamide]	200 to 500
CN1Cc2cc(NC(=O)c3cccnc3N3CCOCC3)ccc2NC1=O [Compound-130, N-(3-methyl-2-oxo-1,4-dihydroquinazolin-6-yl)-2-morpholino-pyridine-3-carboxamide]	1000 to 10000

Further lines, results first:

IC50 [nM]	SMILES
< 200	Cc1cc(O)nc2ccc(NC(=O)c3cc(CN4CCOCC4)cnc3N3CCC(F)C3)cc12 (centres unmarked) [Compound-88, 2-(3-fluoropyrrolidin-1-yl)-N-(2-hydroxy-4-methyl-6-quinolyl)-5-(morpholinomethyl)pyridine-3-carboxamide]
< 200	Cc1cc(O)nc2ccc(NC(=O)c3cc(CN4CCOCC4)cnc3N3CCC(O)C3)cc12 (centres unmarked) [Compound-89, N-(2-hydroxy-4-methyl-6-quinolyl)-2-(3-hydroxypyrrolidin-1-yl)-5-(morpholinomethyl)pyridine-3-carboxamide]
< 200	Cc1cc(O)nc2ccc(NC(=O)c3cc(CN4CCOCC4)cnc3N3CCOCC3)cc12 [Compound-90, N-(2-hydroxy-4-methyl-6-quinolyl)-2-morpholino-5-(morpholinomethyl)pyridine-3-carboxamide]
< 200	O=C(Nc1ccc2nc(O)cc(Cl)c2c1)c1cc(CN2CCOCC2)cnc1N1CCOCC1 [Compound-91, N-(4-chloro-2-hydroxy-6-quinolyl)-2-morpholino-5-(morpholinomethyl)pyridine-3-carboxamide]
1000 to 10000	Cc1cc(O)nc2ccc(NC(=O)c3cc(CN4CCOCC4)cnc3N3CCCC3)nc12 [Compound-93, N-(8-methyl-6-oxo-5H-1,5-naphthyridin-2-yl)-5-(morpholinomethyl)-2-pyrrolidin-1-yl-pyridine-3-carboxamide]
< 200	Cc1cc(O)nc2ccc(NC(=O)c3ccncc3N3CCCC3)cc12 [Compound-95, N-(2-hydroxy-4-methyl-6-quinolyl)-3-pyrrolidin-1-yl-pyridine-4-carboxamide]
< 200	Cc1cc(O)nc2ccc(NC(=O)c3cccnc3N3CCCC3)cc12 [Compound-96, N-(2-hydroxy-4-methyl-6-quinolyl)-2-pyrrolidin-1-yl-pyridine-3-carboxamide]
< 200	Cc1cc(O)nc2ccc(NC(=O)c3cccnc3N3CCCC3CN(C)C)cc12 (centres unmarked) [Compound-97, 2-[2-(dimethylaminomethyl)pyrrolidin-1-yl]-N-(2-hydroxy-4-methyl-6-quinolyl)pyridine-3-carboxamide]
< 200	CC1CC(=O)Nc2ccc(NC(=O)c3cc(S(=O)(=O)N(C)C)ccc3N3CCCC3)cc21 (centres unmarked) [Compound-102, 5-(dimethylsulfamoyl)-N-(4-methyl-2-oxo-3,4-dihydro-1H-quinolin-6-yl)-2-pyrrolidin-1-yl-benzamide]
< 200	Cc1cc(O)nc2ccc(NC(=O)c3cc(C(F)(F)F)ccc3N3CCCC3)cc12 [Compound-109, N-(2-hydroxy-4-methyl-6-quinolyl)-2-pyrrolidin-1-yl-5-(trifluoromethyl)benzamide]
< 200	Cc1cc(O)nc2ccc(NC(=O)c3cc(CC#N)ccc3N3CCCC3)cc12 [Compound-112, 5-(cyanomethyl)-N-(4-methyl-2-oxo-1,2-dihydroquinolin-6-yl)-2-(pyrrolidin-1-yl)benzamide]
< 200	Cc1cc(O)nc2ccc(NC(=O)c3cc(C#N)ncc3N3CCC(F)C3)cc12 (centres unmarked) [Compound-115, 2-cyano-5-(3-fluoropyrrolidin-1-yl)-N-(2-hydroxy-4-methylquinolin-6-yl) isonicotinamide]
< 200	Cc1cc(O)nc2ccc(NC(=O)c3cccnc3N3CCCC3CN(C)C)cc12 (centres unmarked) [Compound-121, 2-[2-(dimethylaminomethyl)pyrrolidin-1-yl]-N-(2-hydroxy-4-methyl-6-quinolyl)pyridine-3-carboxamide]
< 200	Cc1cc(O)nc2ccc(NC(=O)c3cnccc3N3CCOCC3)cc12 [Compound-123, N-(2-hydroxy-4-methyl-6-quinolyl)-4-morpholino-pyridine-3-carboxamide]
200 to 500	Cc1cc(O)nc2ccc(NC(=O)c3cnccc3N3CCCC3)cc12 [Compound-124, N-(2-hydroxy-4-methyl-6-quinolyl)-4-pyrrolidin-1-yl-pyridine-3-carboxamide]
500 to 1000	Cc1cc2nc(O)cc(C)c2cc1NC(=O)c1cccnc1N1CCOCC1 [Compound-125, N-(2-hydroxy-4,7-dimethyl-6-quinolyl)-2-morpholino-pyridine-3-carboxamide]
1000 to 10000	CC(C)c1cc(O)nc2ccc(NC(=O)c3cccnc3N3CCOCC3)cc12 [Compound-129]

Source: patent US10752640B2, “Compounds active towards bromodomains” (NUEVOLUTION A/S, priority 2014, dated 2020)
